Experimental data published in US8716279B2, “Pharmaceutical compositions of clonazepam and method of use thereof” (Jazz Pharmaceuticals, Inc., priority 2006, dated 2014).
≈ marks a conversion by molar mass, not a printed value.

How the values were obtained:
[1] = Psychomotor, subjective and cognitive tests; format: in vivo; settings: human
From the text: D. Neurocognative Tests: The Cognitive Drug Research (CDR) computerized assessment system is specifically designed to evaluate the effects of compounds on the quality of cognitive functioning in subjects and patients in all phases of clinical development. The CDR system is a widely used computerized cognitive assessment system (see, for example, Ebert U, et al., “Pharmacokinetics and pharmacodynamics of scopolamine after subcutaneous administration,” Journal of Clinical Pharmacology 38: 720-726 (1998); Harrington F, et al., “Cognitive Performance in Hypertensive and Normotensive Older Subjects,” Hypertension 36: 1079-1082 (2000); Preece A W, et al., “Effect of a 915-MHz simulated mobile phone signal on cognitive function in man,” International Journal of Radiation Biology 75: 447-456 (1999); and Walker M P, et al., “Quantifying fluctuation in Dementia with Lewy Bodies, Alzheimer's disease and vascular dementia,” Neurology 54: 1616-1625 (2000)) and has been used to evaluate a diverse range of pharmaceutical compounds.
This example describes the pharmacodynamic effects of clonazepam compositions formulated for intranasal administration using neurocognitive tests. A selection of tests from a computerized assessment system of Cognitive Drug Research (“CDR,” Reading, United Kingdom) is employed. The study is typically a double-blind, randomized, placebo-controlled cross-over design. As a control, the group may receive clonazepam intravenous (i.v.) and placebo at selected dosages.
Cognitive function is typically assessed using an attentional task battery to assess attention and a word recognition task to assess secondary memory. […]
Tests may be administered, for example, in the following order: Word Presentation; Simple Reaction Time; Digit Vigilance; Choice Reaction Time; and Word Recognition. […] Summary statistics (m, number; mean; sem, standard error; sd, standard deviation; median; min, minimum; max, maximum; and missing) are typically calculated for each measure at each time point by dose. […]

[2] = Solubility of clonazepam in glycol ethers at 25° C.
Procedure: 10 mg of clonazepam was weighed into glass vials used in the Pfeiffer mono-dose spray system (Pfeiffer of America, Princeton, N.J.). Four samples of each of four solvents were prepared as follows. 130-μL of each solvent was pipetted into the vial, which was then stoppered with a black chlorobutyl rubber stopper.
The vials were removed from the chamber, placed inside polyethylene centrifuge vials, and centrifuged for 2 minutes at 5000 rpm. 10 μL of liquid was then sampled from each vial, accurately weighed, and diluted with 1 mL of acetonitrile. The drug concentration was analyzed by UV using an Agilent HPLC system with no column, 10 μL injection volume, acetonitrile mobile phase, 0.3 mL/min and UV detection at 350 nm.

Structure (SMILES): O=C1CN=C(c2ccccc2Cl)c2cc([N+](=O)[O-])ccc2N1 [Clonazepam, 5-(2-chlorophenyl)-1,3-dihydro-7-nitro-2H-1,4-benzodiazepin-2-one]
- time at which effects were first apparent (Leeds Psychomotor Test, Bond and Lader VAS, Karolinska Sleepiness Scale) ([1]; intranasal administration): approximately 30 minutes
- time at which effects were first apparent (Leeds Psychomotor Test, Bond and Lader VAS, Karolinska Sleepiness Scale) ([1]; intravenous administration): approximately 30 minutes
- time at which effects were first apparent (Leeds Psychomotor Test, Bond and Lader VAS, Karolinska Sleepiness Scale) ([1]; oral administration): approximately 2 hours
- Solubilities (mg/mL) of Clonazepam in Solvent/Water Solutions ([2]; 1,2-dimethyxoethane, 100% solvent / 0% water, 25° C. (neat solvent value from Example 11, included for reference)): 39.3 mg/mL
- Solubility ([2]; in 1,2-dimethyxoethane, 25 C.): 39.3 mg/mL (≈ 124 mM)
